Each compound was assayed against Carbonic anhydrase 2 (Homo sapiens, UniProt P00918) (assay: Inhibition of human cytosolic carbonic anhydrase 2 by stopped-flow CO2 hydrase assay).
In the case of `COC(=O)c1cccc(-c2ccc3c(c2)C=CS(=O)(=O)O3)c1`, the Ki is reported as > 10 µM. For `O=S1(=O)C=Cc2cc(-c3ccc(C(F)(F)F)cc3)ccc2O1`, the Ki was > 10 µM. `COc1ccc(-c2ccc3c(c2)C=CS(=O)(=O)O3)cc1` was tested, and the Ki was > 10 µM. `CC(C)(C)c1ccc(-c2ccc3c(c2)C=CS(=O)(=O)O3)cc1` was tested, and the Ki was > 10 µM. For `O=S1(=O)C=Cc2cc(-c3ccc(F)cc3)ccc2O1`, the Ki was > 10 µM. For `Cc1ccccc1-c1ccc2c(c1)C=CS(=O)(=O)O2`, the Ki was > 10 µM. `O=S1(=O)C=Cc2cc(-c3cccc(C(F)(F)F)c3)ccc2O1` was tested, and the Ki was > 10 µM. For `Cc1ccc(-c2ccc3c(c2)C=CS(=O)(=O)O3)cc1`, the Ki was > 10 µM. For `O=S1(=O)C=Cc2cc(-c3cccc(F)c3)ccc2O1`, the Ki was > 10 µM. For `CC(C)Oc1ccc(-c2ccc3c(c2)C=CS(=O)(=O)O3)cc1`, the Ki was > 10 µM. With `O=S1(=O)C=Cc2cc(-c3ccc(Cl)c(Cl)c3)ccc2O1` the Ki was > 10 µM. With `O=S1(=O)C=Cc2cc(-c3ccc(OC(F)(F)F)cc3)ccc2O1` the Ki was > 10 µM. In the case of `O=S1(=O)C=Cc2cc(-c3ccccc3)ccc2O1`, the Ki is reported as > 10 µM.

These compounds were tested against Carbonic anhydrase 9 (Homo sapiens, UniProt Q16790) (assay: Inhibition of human tumor-associated carbonic anhydrase 9 by stopped-flow CO2 hydrase assay).
`COC(=O)c1cccc(-c2ccc3c(c2)C=CS(=O)(=O)O3)c1` gave a Ki of 0.009 µM. Compound `O=S1(=O)C=Cc2cc(-c3ccc(C(F)(F)F)cc3)ccc2O1` has a Ki of 0.0297 µM. Compound `COc1ccc(-c2ccc3c(c2)C=CS(=O)(=O)O3)cc1` has a Ki of 0.0709 µM. In the case of `CC(C)(C)c1ccc(-c2ccc3c(c2)C=CS(=O)(=O)O3)cc1`, the Ki is reported as 0.0091 µM. With `O=S1(=O)C=Cc2cc(-c3ccc(F)cc3)ccc2O1` the Ki was 0.0953 µM. `Cc1ccccc1-c1ccc2c(c1)C=CS(=O)(=O)O2` showed a Ki of 0.0708 µM. In the case of `O=S1(=O)C=Cc2cc(-c3cccc(C(F)(F)F)c3)ccc2O1`, the Ki is reported as 0.0098 µM. Compound `Cc1ccc(-c2ccc3c(c2)C=CS(=O)(=O)O3)cc1` has a Ki of 0.0774 µM. For `O=S1(=O)C=Cc2cc(-c3cccc(F)c3)ccc2O1`, the Ki was 0.0103 µM. Compound `CC(C)Oc1ccc(-c2ccc3c(c2)C=CS(=O)(=O)O3)cc1` has a Ki of 0.0098 µM. `O=S1(=O)C=Cc2cc(-c3ccc(Cl)c(Cl)c3)ccc2O1` showed a Ki of 0.0094 µM. Compound `O=S1(=O)C=Cc2cc(-c3ccc(OC(F)(F)F)cc3)ccc2O1` has a Ki of 0.0762 µM. With `O=S1(=O)C=Cc2cc(-c3ccccc3)ccc2O1` the Ki was 0.0599 µM.

Each compound was assayed against Carbonic anhydrase 1 (Homo sapiens, UniProt P00915) (assay: Inhibition of human cytosolic carbonic anhydrase 1 by stopped-flow CO2 hydrase assay).
Carbonic anhydrase 1, sequence (P00915 whole entry): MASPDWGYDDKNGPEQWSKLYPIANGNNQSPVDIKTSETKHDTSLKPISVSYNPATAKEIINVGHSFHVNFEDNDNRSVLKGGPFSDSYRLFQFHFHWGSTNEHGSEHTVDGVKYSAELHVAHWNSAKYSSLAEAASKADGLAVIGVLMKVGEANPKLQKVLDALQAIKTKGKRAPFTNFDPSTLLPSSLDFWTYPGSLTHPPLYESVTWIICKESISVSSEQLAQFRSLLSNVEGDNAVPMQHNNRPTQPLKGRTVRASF
With `COC(=O)c1cccc(-c2ccc3c(c2)C=CS(=O)(=O)O3)c1` the Ki was > 10 µM. For `O=S1(=O)C=Cc2cc(-c3ccc(C(F)(F)F)cc3)ccc2O1`, the Ki was > 10 µM. `COc1ccc(-c2ccc3c(c2)C=CS(=O)(=O)O3)cc1` was tested, and the Ki was > 10 µM. For `CC(C)(C)c1ccc(-c2ccc3c(c2)C=CS(=O)(=O)O3)cc1`, the Ki was > 10 µM. With `O=S1(=O)C=Cc2cc(-c3ccc(F)cc3)ccc2O1` the Ki was > 10 µM. In the case of `Cc1ccccc1-c1ccc2c(c1)C=CS(=O)(=O)O2`, the Ki is reported as > 10 µM. `O=S1(=O)C=Cc2cc(-c3cccc(C(F)(F)F)c3)ccc2O1` was tested, and the Ki was > 10 µM. With `Cc1ccc(-c2ccc3c(c2)C=CS(=O)(=O)O3)cc1` the Ki was > 10 µM. In the case of `O=S1(=O)C=Cc2cc(-c3cccc(F)c3)ccc2O1`, the Ki is reported as > 10 µM. For `CC(C)Oc1ccc(-c2ccc3c(c2)C=CS(=O)(=O)O3)cc1`, the Ki was > 10 µM. For `O=S1(=O)C=Cc2cc(-c3ccc(Cl)c(Cl)c3)ccc2O1`, the Ki was > 10 µM. In the case of `O=S1(=O)C=Cc2cc(-c3ccc(OC(F)(F)F)cc3)ccc2O1`, the Ki is reported as > 10 µM. `O=S1(=O)C=Cc2cc(-c3ccccc3)ccc2O1` was tested, and the Ki was > 10 µM.

Source: ChEMBL document CHEMBL3400082, “Synthesis of 6-aryl-substituted sulfocoumarins and investigation of their carbonic anhydrase inhibitory action” (Bioorg Med Chem, 2015)
